Consider 1 molecule from patent publication US8455692B2, “Process for resolution of 1-(3-hydroxyphenyl)-2-methylamino ethanol” (Divi's Laboratories, Ltd., priority 2010, dated 2013).

SMILES strings stand for the structures.

A short description of the series: Solubility of phenylephrine base in water and methanol (Table 2). The series is classed as physicochemical. The method, then:
One skilled in the art can improvise modifications to the above procedure in several aspects. For example it is possible to use the racemic phenylephrine hydrochloride salt, suspend it in methanol and add the requisite amount of alkali to liberate the free base before adding the R-naproxen to it. Phenylephrine base is not soluble in water but may be rendered soluble at a temperature above 80° and higher dilution but at lower dilution in hot methanol. Suitable combination of solvent, dilution and temperature may be chosen depending on the size of input. (See Table 2 below). R-naproxen may be added as a solution in methanol or as a solid to keep a low solvent ratio enabling better recovery of the salt.

Take `CNCC(O)c1cccc(O)c1` (racemic) [Phenylephrine base, 1-(3-hydroxyphenyl)-2-methylamino ethanol]: the Solubility result is, setting by setting: (Methanol, 25-30° C., 1 g in 10 mL) “Not soluble”; (Methanol, 25-30° C., 1 g in 30 mL) “Not soluble”; (Methanol, 25-30° C., 1 g in 100 mL) “Soluble”; (Methanol, 60-80° C., 1 g in 10 mL) “Not soluble”; (Methanol, 60-80° C., 1 g in 30 mL) “Soluble”; (Methanol, 60-80° C., 1 g in 100 mL) “Soluble”. For the same molecule, the Solubility entry reads like this: (Water, 25-30° C., 1 g in 10 mL) “Not soluble”; (Water, 25-30° C., 1 g in 30 mL) “Not soluble”; (Water, 25-30° C., 1 g in 100 mL) “Not soluble”; (Water, 60-80° C., 1 g in 10 mL) “Not soluble”; (Water, 60-80° C., 1 g in 30 mL) “Not soluble”; (Water, 60-80° C., 1 g in 100 mL) “Soluble”. For the same molecule, the Solubility result runs as follows: (Water, 100° C., 1 g in 10 mL) “Not soluble”; (Water, 100° C., 1 g in 30 mL) “Soluble”; (Water, 100° C., 1 g in 100 mL) “Soluble”. Besides, the Solubility in water entry (water) is “not soluble”.
